In patent US8207144B2, “Sodium salt of disaccharide compound, production method and use of same” (Eisai R & D Management Co., Ltd., priority 2006, dated 2012):

Assay: Storage stability test (formation of impurities A, B and C by HPLC)
Assay type: physicochemical
Conditions: HPLC area percent
Method: Consequently, formation rates (converted to monthly rates) were calculated for each of the three types of decomposition products (impurities A, B and C) using the area percent.

[1] = storage at 25° C. in screw-cap glass bottle, day 0
[2] = storage at 25° C., day 1.0, listed as 3.93 Na Salt
[3] = storage at 25° C., day 1.9, listed as 3.93 Na Salt
[4] = storage at 25° C., day 4.5, listed as 3.93 Na Salt
[5] = storage at 25° C., day 1.0, listed as 3.67 Na Salt
[6] = storage at 25° C., day 1.9, listed as 3.67 Na Salt
[7] = storage at 25° C., day 4.5, listed as 3.67 Na Salt

CCCCCC/C=C\CCCCCCCCCC(=O)N[C@H]1[C@H](OC[C@H]2O[C@H](OP(=O)([O-])[O-])[C@H](NC(=O)CC(=O)CCCCCCCCCCC)[C@@H](OCCCCCCCCCC)[C@@H]2O)O[C@H](COC)[C@@H](OP(=O)([O-])[O-])[C@@H]1OCC[C@@H](CCCCCCC)OC.[Na+].[Na+].[Na+].[Na+] [Example 4]
Impurity A [1]: 0.00% | Impurity C (storage at 25° C., day 0): 0.00% | Impurity B (storage at 25° C., day 0, listed as 3.93 Na Salt): 0.14% | Impurity C (storage at 25° C., day 1.0): 0.00% | Impurity A [2]: 0.03% | Impurity B [2]: 0.26% | Impurity C (storage at 25° C., day 1.9): 0.00% | Impurity A [3]: 0.04% | Impurity B [3]: 0.29% | Impurity C (storage at 25° C., day 4.5): 0.01% | Impurity A [4]: 0.06% | Impurity B [4]: 0.38% | Impurity C (storage at 25° C., day 8.8): 0.01% | Impurity C (storage at 25° C., day 29.5, listed as 3.93 Na Salt): 0.06%

CCCCCC/C=C\CCCCCCCCCC(=O)NC1C(OCC2OC(OP(=O)([O-])[O-])C(NC(=O)CC(=O)CCCCCCCCCCC)C(OCCCCCCCCCC)C2O)OC(COC)C(OP(=O)([O-])[O-])C1OCCC(CCCCCCC)OC.[Na+].[Na+].[Na+].[Na+] (stereo not drawn) [Comparative Example 1, reference compound]
Impurity A [1]: 0.00% | Impurity B (storage at 25° C., day 0): 0.18% | Impurity C (storage at 25° C., day 0): 0.00% | Impurity A (storage at 25° C., day 1.0): 0.06% | Impurity B (storage at 25° C., day 1.0): 0.36% | Impurity C (storage at 25° C., day 1.0): 0.00% | Impurity A (storage at 25° C., day 1.9): 0.08% | Impurity B (storage at 25° C., day 1.9): 0.48% | Impurity C (storage at 25° C., day 1.9): 0.00% | Impurity A (storage at 25° C., day 4.5): 0.12% | Impurity B (storage at 25° C., day 4.5): 0.67% | Impurity C (storage at 25° C., day 4.5): 0.00% | Impurity C (storage at 25° C., day 8.8): 0.00% | Impurity C (storage at 25° C., day 29.5): 0.03%

CCCCCC/C=C\CCCCCCCCCC(=O)N[C@H]1[C@H](OC[C@H]2O[C@H](OP(=O)([O-])[O-])[C@H](NC(=O)CC(=O)CCCCCCCCCCC)[C@@H](OCCCCCCCCCC)[C@@H]2O)O[C@H](COC)[C@@H](OP(=O)([O-])[O-])[C@@H]1OCC[C@@H](CCCCCCC)OC.[Na+].[Na+].[Na+].[Na+] [Example 3]
Impurity A [1]: 0.00% | Impurity C (storage at 25° C., day 0): 0.00% | Impurity B (storage at 25° C., day 0, listed as 3.67 Na Salt): 0.08% | Impurity C (storage at 25° C., day 1.0): 0.00% | Impurity A [5]: 0.00% | Impurity B [5]: 0.12% | Impurity C (storage at 25° C., day 1.9): 0.00% | Impurity A [6]: 0.01% | Impurity B [6]: 0.09% | Impurity C (storage at 25° C., day 4.5): 0.01% | Impurity A [7]: 0.01% | Impurity B [7]: 0.13% | Impurity C (storage at 25° C., day 8.8): 0.01% | Impurity C (storage at 25° C., day 29.5, listed as 3.67 Na Salt): 0.07%

CCCCCC/C=C\CCCCCCCCCC(=O)N[C@H]1[C@H](OC[C@H]2O[C@H](OP(=O)(O)O)[C@H](NC(=O)CC(=O)CCCCCCCCCCC)[C@@H](OCCCCCCCCCC)[C@@H]2O)O[C@H](COC)[C@@H](OP(=O)(O)O)[C@@H]1OCC[C@@H](CCCCCCC)OC [Example 2]
Impurity A [1]: 0.00% | Impurity B (storage at 25° C., day 0): 0.00% | Impurity C (storage at 25° C., day 0): 0.00% | Impurity A (storage at 25° C., day 18): 0.00% | Impurity B (storage at 25° C., day 18): 0.00% | Impurity C (storage at 25° C., day 18): 0.17%
